Values joined by “and” are separate entries in the source; they are usually repeats but may differ in a detail not shown here. Identical values can stand only once. Like-named read-outs stand apart in the source and are kept apart here. A value given as a limit tells only on which side of the number the result lay.

The target in one series is T1, GB1-FRS2_PTB:FGFR_PEP (Homo sapiens, UniProt Q8WU20).
T1 construct: FRS2-PTB 11-140aa; 6xHis (N); made in house; host or cells: E. coli BL21 (DE3) for the protein
T1 sequence (Q8WU20 11-140): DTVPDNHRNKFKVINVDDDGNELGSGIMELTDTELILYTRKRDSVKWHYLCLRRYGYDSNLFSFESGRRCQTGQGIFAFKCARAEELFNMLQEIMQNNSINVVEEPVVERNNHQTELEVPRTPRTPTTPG
Nature of the series: nanoDSF competition assay with the FGFR peptide. Type of series: binding. To be noted: PTB domain:FGFR peptide 1:5; 500 μM compound. Here is the method:
(§1) Purified FRS2_PTB or GB1_FRS2_PTB protein tagged with 6 × Histidine residues and the B1 immunoglobulin binding domain of the streptococcal protein G (GB1) were diluted in the protein buffer (100 mM sodium phosphate, 50 mM NaCl, 0.5 mM EDTA, 50 mM arginine, 1 mM TCEP, pH 7.0) to 30 μM, GB-1 to 40 μM. FGFR_PEP, compounds or paracetamol (PARA) as negative control were dissolved at 1 mM in the protein buffer supplemented with 10% DMSO. Compound and protein were mixed at 1:1 volume ratio yielding a final concentration of 15 μM and 20 μM for FRS2_PTB/GB1_FRS2_PTB and GB1, respectively, as well as 500 μM for FGFR_PEP or compounds. The mixture was incubated for 15 min. Each compound was measured in triplicates. Protein controls were measured in six replicates in the beginning. The quality of the screen was assessed by the Z-factor. nanoDSF validation studies were performed on a Prometheus® system in high sensitivity capillaries. Samples were heated with 1 °C/min from 20 to 95 °C. Each compound was measured in triplicates. GB1-FRS2_PTB and GB1 were diluted in the protein buffer (100 mM sodium phosphate, 50 mM NaCl, 0.5 mM EDTA, 50 mM arginine, 1 mM TCEP, pH 7.0) to 30 μM. Compounds 3.3, 3.4, 3.18 as well as the 3.18 analogues were dissolved in 100% DMSO at 50 or 100 mM and further diluted to 1 mM with a final […]. FGFR_PEP was dissolved at 1 mM in the protein buffer supplemented with 10% DMSO. Compound and protein were mixed at 1:1 volume ratio yielding final concentrations of 15 μM protein and 500 μM for the compounds. FGFR_PEP was measured against both GB1-FRS2_PTB and GB1, all other compounds only against GB1-FRS2_PTB. The mixture was incubated for 15 min before measurement. The data was analyzed for both the ratio of signals at 330 and 350 nm and at 350 nm alone. For the competition assays, the PTB domain and the FGFR peptide were mixed at a 1:5 ratio, and ligand competition was assayed in the presence of 500 μM compound.
(Differential scanning fluorimetry follows unfolding on heating by fluorescence.)

Series [1] can be described thus: Solubility at the concentration required for the biophysical assays. Type of series: physicochemical. As to conditions: 5% DMSO.
Series [2] relates to DAOY cells. Nature of the series: Spheroid invasion assay (SIA), bFGF-induced collagen I invasion. As to conditions: DAOY cells, n = 3 technical replicas, read-out: EC50 for the inhibition of bFGF-induced collagen I invasion. It is filed as cell-based, human. How it is done:
(§2) 1000—2500 cells/well in 100 μl were seeded in 96 well Corning® Spheroid microplate (CLS4520, Sigma-Aldrich) or in cell-repellent 96 well microplate (650,790, Greiner Bio-one). SIA and analysis was performed as described before. In brief: After spheroid formation (24 – 72 h after seeding), 70 µl medium was removed and replaced with the collagen mixture (2.5 mg/ml Pure Col Collagen I (Advanced Biomatrix)), DMEM 1x (from 10 × stock, Sigma, D2429) and 0.4% Sodium bicarbonate (Sigma, S8761)), resulting in a final collagen concentration of 1.75 mg/ml. Embedded spheroids were stimulated with bFGF (100 ng/ml if not otherwise stated), HGF (30 ng /ml) or EGF (20 ng/ml) and distance of invaded cells quantified 24 – 48 h after embedding. Compounds and BGJ398 were added in Dimethylsulfoxid (DMSO) and corresponding DMSO concentrations were used in control samples.

Series [3] concerns DAOY cells. In words: SIA, EGF-induced cell invasion. Type of series: cell-based, human. As to conditions: 10 µM. Here is the method: as §2
The target in a further series is T2, FRS2_PTB (Homo sapiens, UniProt Q8WU20).
T2 construct: FRS2-PTB 11-140aa; 6xHis; made in house; host or cells: E. coli BL21 (DE3)
T2 sequence (Q8WU20 11-140): T1 sequence (Q8WU20 11-140)
In words: nano differential scanning fluorimetry (nanoDSF). Type of series: binding. As to conditions: 500 μM ligand. How it is done:
Assay establishment and pilot nanoDSF experiments were performed with a Tycho® system. Each experiment was performed by mixing the protein and ligand of interest at a 1:1 ratio and subsequent incubation for 15–30 min at room temperature. Controls of protein alone and ligand alone in identical buffer compositions as for the complex were measured accordingly. The temperature gradient ranged from 35 to 95 °C, and the heating rate was 30 °C/min. Inflection temperatures TI were calculated from the first derivative of the spectra obtained at the ratio of the signals at 350 nm to those at 330 nm. ΔTI of a complex was calculated as following: ΔTI,complex = TI,complex – TI,protein.
The in-built software version 1.1.5.668 (NanoTemper Technologies, Munich, Germany) and Microsoft Office Excel 365 (Microsoft Corp., Seattle, USA) was used for data analysis. Data was plotted with GraphPad Prism vers. 8.3.0 (GraphPad Software, San Diego, USA).
as §1, with “For the competition assays, the PTB domain and the FGFR peptide were mixed at a 1:5 ratio, and ligand competition was assayed in the presence of 500 μM compound.” left out

In another series the target is T3, GB1-FRS2-PTB (Homo sapiens, UniProt Q8WU20).
T3 construct: FRS2-PTB 11-140aa; 6xHis (N); made in house; host or cells: E. coli BL21 (DE3)
T3 sequence (Q8WU20 11-140): T1 sequence (Q8WU20 11-140)
Nature of the series: Microscale thermophoresis (MST). Type of series: binding. Here is the method:
Protein labeling for MST was performed with the 2nd Generation BLUE-NHS dye. GB1-FRS2_PTB- was labelled at 20 μM with 60 μM dye and incubated for 30 min in the dark at room temperature. The labelling was performed in the protein buffer without arginine supplementation. It was rebuffered to protein buffer (100 mM sodium phosphate, 50 mM NaCl, 0.5 mM EDTA, 50 mM arginine, 1 mM TCEP, pH 7.0). The dye was subsequently removed by gravitational flow chromatography and the protein concentration determined by UV-spectroscopy. The assay was established with the FGFR_PEP. […] A total volume of 10 μl of 50 nM labelled protein was added to 10 μl of the peptide dilution series for a final labelled protein concentration of 25 nM. The samples were incubated for 15 min at RT. […] Temperature was set to 25 °C. Each measurement was repeated twice. The interaction was measured in duplicates for the non-DMSO-supplemented buffer and in triplicates for DMSO-supplemented buffer. […] The samples were incubated for 15 min, and MST assessed as described above. Each measurement was repeated twice. The interaction was measured in two independent duplicates. […] The mixture was then measured for their initial fluorescence once. MST-experiments were performed with MO.Control vers. 1.6 (NanoTemper Technologies, Munich, Germany) and data analyzed with MO.Analysis vers. 2.3 (NanoTemper Technologies, Munich, Germany). Data was plotted with GraphPad Prism vers. 8.3.0 (GraphPad Software, San Diego, USA).
(In general: In MST a laser heats a spot of the sample, and binding alters the fluorescence response.)

Take `O=[N+]([O-])c1c(Cl)cc(O)c2c1C1C=CCC1C(c1ccc(Br)cc1)N2` (stereo not drawn) [Compound 2]: the “nanoDSF competition with FGFR peptide (result in words)” value (“nanoDSF competition with FGFR peptide” for short) at GB1-FRS2_PTB:FGFR_PEP was “negative shift in compound-mixed samples”. For the same molecule, in series [1], the “solubility for biophysical assays (result in words)” value is reported as “soluble in 5% DMSO”.

With `O=[N+]([O-])c1c(Cl)cc(O)c2c1C1C=CCC1C(C1CC=CCC1)N2` (stereo not drawn) [Compound 3.18], the half-maximal effective concentration (EC50) in the series with DAOY cells [2] was found to be 1.29 µM; in the series with DAOY cells [2] (Homo sapiens, Daoy), 1.29 µM. Also, the “effect on EGF-induced cell invasion (result in words)” value with DAOY cells [3] is on record as “only moderately reduced”. Also, the “nanoDSF competition with FGFR peptide” value at GB1-FRS2_PTB:FGFR_PEP is given as “negative shift in compound-mixed samples”. For the same molecule, the “nanoDSF shift of the inflection point of the melting curve (ΔTm)” value on FRS2_PTB is less than -2 °C. Besides, the Kd on GB1-FRS2-PTB (GB1-FRS2_PTB, read-out: KD, initial fluorescence change analysis) was 110 µM and 140 µM and 110 to 140 µM. Also, at GB1-FRS2-PTB (signal:noise ratio > 5 counts as binding), the “binding by MST trace analysis (result in words)” value is “no binding was detected”.

As for `O=[N+]([O-])c1c(Cl)cc(O)c2c1C1C=CCC1C(c1ccccc1)N2` (stereo not drawn) [Compound 9], the “effect on EGF-induced cell invasion (result in words)” value with DAOY cells [3] is on record as “only moderately reduced”. The “nanoDSF competition with FGFR peptide” value on GB1-FRS2_PTB:FGFR_PEP is listed as “negative shift in compound-mixed samples”. In addition, the “solubility for biophysical assays (result in words)” value in series [1] is given as “soluble in 5% DMSO”.

One may read the EC50 as the concentration giving half of the maximal effect. As usually defined, the Kd is the constant that tells how readily two partners part at equilibrium.

The record behind these values is paper PMC10060354, “Discovery of a small molecule ligand of FRS2 that inhibits invasion and tumor growth” (Cellular Oncology, 2022).
